# In patent US20100056519A1, “COMPOSITION AND METHOD FOR REDUCING PLATELET ACTIVATION AND FOR THE TREATMENT OF THROMBOTIC EVENTS” (priority 2008, published 2010):
# Columns and labels:
# Format in all cases: cell-based, human
# Settings in all cases: Mean ± SD
# platelets = test: Whole blood (impedance) aggregation with 1 μg/ml collagen
# Description: (§1) The methodology employed was conventional aggregation induced by 5 μM ADP, 1 μg/ml collagen, 10 μM TRAP, whole blood aggregation with 1 μg/ml collagen, Ultegra, and PFA-100 Analyzers, expression of 14 intact, and TRAP-stimulated major receptors by whole blood flow cytometry were utilized to assess platelet activity after preincubation with escalating concentrations of E5555 (20 ng/ml, 50 ng/ml, and 100 ng/ml). The experiments were performed in healthy volunteers, CAD patients treated with ASA, and CAD patients treated with ASA and clopidogrel combination (n=10, for each group).
# (§2) An Informed Consent was obtained from all volunteers. Drug users were excluded from data analysis. The study was approved by Quorum Institutional Review Board. All subjects underwent blood sampling after at least 30 minutes of rest and two or more hours of fasting. Blood (28 ml) was drawn between 8 and 10 a.m. in order to avoid any diurnal influence and sampled from an antecubital vein using a 21-gauge butterfly needle containing 3.2% sodium citrate (1:9 volume) after having discarded the first 1.5 ml of free running blood. Four Vacutainer tubes (7.0 ml) were collected for a total of 28 ml of whole blood-citrate mixture from each study participant. Chronologically, blood samples were delivered to the core laboratory facility within 45 minutes after drawing. Then all tubes of blood-citrate mixture were pooled. One portion of pooled blood (5 ml) was kept as an internal control and pretreated with the vehicle. The remaining blood (23 ml) was used for the in vitro exposure to E5555 at concentrations of 20 ng/ml, 50 ng/ml, and 100 ng/ml. […] The platelet aggregation studies, Rapid Analyzers measures, and flow cytometry preparations were initiated within no more than 110 minutes following the blood draw, incubation with the drug, and preparation of the samples.
# Whole blood aggregation was determined using a Chronolog device 592A. The whole blood-citrate mixture was diluted 1:1 with 0.5 ml phosphate buffered saline and gently swirled. The sample then was allowed to warm to 37° C. for 5 minutes then transferred to the assay well. The electrode was then placed in the cuvette and the sample was stimulated with 1 μg/ml collagen. The change in electrical impedance was digitally recorded. Each whole blood sample was analyzed utilizing 2 different clinical devices: • (1) a Rapid Platelet-Function Assay (Ultegra®) (Accumetrics, Inc., San Diego, Calif.), which is a rapid platelet-function assay aspirin cartridge test with TRAP used as agonist. Polystyrene beads coated with fibrinogen are placed in a cartridge along with the peptide that activates thrombin receptor. Anticoagulated whole blood was added to the cartridge, and agglutination between platelets and coated beads was recorded. The data mirrors turbidimetric platelet aggregation and presumably reflects platelet glycoprotein IIb/IIIa blockade. Ultegra RPFA-TRAP Assay results were reported as Platelet Activation Units (PAU); and • (2) Platelet-Function Analyzer PFA-100 ™ (Dade Behring, Deerfield Ill.), which is a high shear-inducing analyzer that simulates primary hemostasis after injury to a small vessel under flow conditions. The device provides a constant negative pressure that aspirates whole blood, which comes into contact with the collagen, coated membrane and then passes through the aperture. The time required to obtain occlusion of the aperture is digitally recorded. The time to aperture occlusion (the closure time) is recorded in seconds and is inversely related to the degree of shear-induced platelet activation. We used ADP/Collagen cartridges in the index study. Both PFA-100 and Ultegra assays were performed in duplicate. An electronic quality control test was performed on each instrument daily prior to performing any patient samples.
# SPAN-12 = test: Unstimulated whole blood flow cytometry, SPAN-12
# Description: as §1, §2
# (§3) Formation of platelet-leukocyte aggregates was assessed by dual labeling with pan-platelet marker (CD151), and then with CD14, the macrophage receptor for endotoxin lipopolysaccharides (PharMingen, and Coulter, San Diego, Calif., USA). The tubes were then covered with aluminum foil and incubated at 37° C. for 40 minutes with gentle rotation. After incubation, samples were immediately analyzed on a Becton Dickinson FACScan flow cytometer. The instrument was set up to measure forward light scatter, and FITC fluorescence. All parameters were collected using four-decade logarithmic amplification. The data was retrieved in list mode files and then analyzed. P selectin was expressed as percent positive cells. Other antigens were expressed as log mean fluorescence intensity.
# GPIIb antigen (CD41) = test: TRAP-stimulated whole blood flow cytometry, GPIIb antigen
# Description: as §1, §2, §3
# (§4) For flow cytometry (TRAP-stimulated) all of the above flow cytometry experiments were identically repeated utilizing prestimulation with 10 μmol/L TRAP for 5 minutes at 37° C. To determine statistics, a Paired Sign Test was used to define significance of differences between vehicle and E5555-treated groups. The Mann-Whitney U test was used to analyze nonparametric data. Normally distributed data were expressed as mean±standard error (m±SE), and skewed data as median (range). All P-values were two sided. All analysis was performed using the SPSS v9.0 program (SPSS Inc., Chicago, Ill.).
# VTNR (CD51/61) = test: TRAP-stimulated whole blood flow cytometry, vitronectin receptor
# Description: as §1, §2, §3, §4
# CD-40L (CD154) = test: TRAP-stimulated whole blood flow cytometry, CD40-ligand
# Description: as §1, §2, §3, §4
# [1] = test system: Thrombospondin-Receptor (CD36); test: TRAP-stimulated whole blood flow cytometry, thrombospondin receptor
# Description: as §1, §2, §3, §4
# [2] = E5555 20 ng/ml, Patients (ASA + C)
# [3] = E5555 50 ng/ml, Patients (ASA + C)
# [4] = E5555 100 ng/ml, Patients (ASA + C)
# [5] = E5555 100 ng/ml, Patients (ASA)
structure (smiles),measurement,setting,value
"Br.CCOc1cc2c(c(F)c1OCC)C(=N)N(CC(=O)c1cc(N3CCOCC3)c(OC)c(C(C)(C)C)c1)C2 [E5555, 1-(3-tert-butyl-4-methoxy-5-morpholinophenyl)-2-(5,6-diethoxy-7-fluoro-1-imino-1,3-dihydro-2H-isoindol-2-yl)ethanone hydrobromide]","Platelet Aggregation, Whole Blood Collagen 1 μg/mL","platelets; E5555 20 ng/ml, CAD patients treated with ASA + clopidogrel",13 ± 5 ohms
same,"Platelet Aggregation, Whole Blood Collagen 1 μg/mL","platelets; E5555 20 ng/ml, CAD patients treated with ASA",11 ± 4 ohms
same,"Platelet Aggregation, Whole Blood Collagen 1 μg/mL","platelets; E5555 20 ng/ml, healthy volunteers",22 ± 5 ohms
same,"Platelet Aggregation, Whole Blood Collagen 1 μg/mL","platelets; E5555 50 ng/ml, CAD patients treated with ASA + clopidogrel",12 ± 7 ohms
same,"Platelet Aggregation, Whole Blood Collagen 1 μg/mL","platelets; E5555 50 ng/ml, CAD patients treated with ASA",14 ± 6 ohms
same,"Platelet Aggregation, Whole Blood Collagen 1 μg/mL","platelets; E5555 50 ng/ml, healthy volunteers",25 ± 7 ohms
same,"Platelet Aggregation, Whole Blood Collagen 1 μg/mL","platelets; E5555 100 ng/ml, CAD patients treated with ASA + clopidogrel",14 ± 4 ohms
same,"Platelet Aggregation, Whole Blood Collagen 1 μg/mL","platelets; E5555 100 ng/ml, CAD patients treated with ASA",12 ± 5 ohms
same,"Platelet Aggregation, Whole Blood Collagen 1 μg/mL","platelets; E5555 100 ng/ml, healthy volunteers",22 ± 6 ohms
same,"SPAN-12, Mean Fluorescence Intensity",SPAN-12; [2],11 ± 4 MFI
same,"SPAN-12, Mean Fluorescence Intensity","SPAN-12; E5555 20 ng/ml, Patients (ASA)",14 ± 3 MFI
same,"SPAN-12, Mean Fluorescence Intensity","SPAN-12; E5555 20 ng/ml, Volunteers",19 ± 4 MFI
same,"SPAN-12, Mean Fluorescence Intensity",SPAN-12; [3],10 ± 6 MFI
same,"SPAN-12, Mean Fluorescence Intensity","SPAN-12; E5555 50 ng/ml, Patients (ASA)",11 ± 5 MFI
same,"SPAN-12, Mean Fluorescence Intensity","SPAN-12; E5555 50 ng/ml, Volunteers",19 ± 6 MFI
same,"SPAN-12, Mean Fluorescence Intensity",SPAN-12; [4],12 ± 7 MFI
same,"SPAN-12, Mean Fluorescence Intensity",SPAN-12; [5],13 ± 5 MFI
same,"SPAN-12, Mean Fluorescence Intensity","SPAN-12; E5555 100 ng/ml, Volunteers",18 ± 6 MFI
same,"GPIIb antigen (CD41), Mean Fluorescence Intensity",GPIIb antigen (CD41); [2],328 ± 41 MFI
same,"GPIIb antigen (CD41), Mean Fluorescence Intensity","GPIIb antigen (CD41); E5555 20 ng/ml, Patients (ASA)",471 ± 38 MFI
same,"GPIIb antigen (CD41), Mean Fluorescence Intensity","GPIIb antigen (CD41); E5555 20 ng/ml, Volunteers",504 ± 18 MFI
same,"GPIIb antigen (CD41), Mean Fluorescence Intensity",GPIIb antigen (CD41); [3],209 ± 30 MFI
same,"GPIIb antigen (CD41), Mean Fluorescence Intensity","GPIIb antigen (CD41); E5555 50 ng/ml, Patients (ASA)",376 ± 35 MFI
same,"GPIIb antigen (CD41), Mean Fluorescence Intensity","GPIIb antigen (CD41); E5555 50 ng/ml, Volunteers",390 ± 31 MFI
same,"GPIIb antigen (CD41), Mean Fluorescence Intensity",GPIIb antigen (CD41); [4],176 ± 19 MFI
same,"GPIIb antigen (CD41), Mean Fluorescence Intensity",GPIIb antigen (CD41); [5],304 ± 40 MFI
same,"GPIIb antigen (CD41), Mean Fluorescence Intensity","GPIIb antigen (CD41); E5555 100 ng/ml, Volunteers",364 ± 37 MFI
same,"VTNR (CD51/61), Mean Fluorescence Intensity",VTNR (CD51/61); [2],10.2 ± 1.5 MFI
same,"VTNR (CD51/61), Mean Fluorescence Intensity","VTNR (CD51/61); E5555 20 ng/ml, Patients (ASA)",10.8 ± 2.1 MFI
same,"VTNR (CD51/61), Mean Fluorescence Intensity","VTNR (CD51/61); E5555 20 ng/ml, Volunteers",10.4 ± 1.3 MFI
same,"VTNR (CD51/61), Mean Fluorescence Intensity",VTNR (CD51/61); [3],10.9 ± 1.6 MFI
same,"VTNR (CD51/61), Mean Fluorescence Intensity","VTNR (CD51/61); E5555 50 ng/ml, Patients (ASA)",10.5 ± 1.3 MFI
same,"VTNR (CD51/61), Mean Fluorescence Intensity","VTNR (CD51/61); E5555 50 ng/ml, Volunteers",10.1 ± 1.7 MFI
same,"VTNR (CD51/61), Mean Fluorescence Intensity",VTNR (CD51/61); [4],11.0 ± 2.0 MFI
same,"VTNR (CD51/61), Mean Fluorescence Intensity",VTNR (CD51/61); [5],9.9 ± 1.3 MFI
same,"VTNR (CD51/61), Mean Fluorescence Intensity","VTNR (CD51/61); E5555 100 ng/ml, Volunteers",10.7 ± 1.5 MFI
same,"CD-40L (CD154), Mean Fluorescence Intensity",CD-40L (CD154); [2],4.9 ± 0.5 MFI
same,"CD-40L (CD154), Mean Fluorescence Intensity","CD-40L (CD154); E5555 20 ng/ml, Patients (ASA)",5.2 ± 0.4 MFI
same,"CD-40L (CD154), Mean Fluorescence Intensity","CD-40L (CD154); E5555 20 ng/ml, Volunteers",6.3 ± 0.6 MFI
same,"CD-40L (CD154), Mean Fluorescence Intensity",CD-40L (CD154); [3],4.0 ± 0.3 MFI
same,"CD-40L (CD154), Mean Fluorescence Intensity","CD-40L (CD154); E5555 50 ng/ml, Patients (ASA)",4.8 ± 0.5 MFI
same,"CD-40L (CD154), Mean Fluorescence Intensity","CD-40L (CD154); E5555 50 ng/ml, Volunteers",5.7 ± 0.6 MFI
same,"CD-40L (CD154), Mean Fluorescence Intensity",CD-40L (CD154); [4],4.7 ± 0.5 MFI
same,"CD-40L (CD154), Mean Fluorescence Intensity",CD-40L (CD154); [5],5.0 ± 0.8 MFI
same,"CD-40L (CD154), Mean Fluorescence Intensity","CD-40L (CD154); E5555 100 ng/ml, Volunteers",5.7 ± 0.4 MFI
same,"Thrombospondin-Receptor (CD36), Mean Fluorescence Intensity",[1]; [2],6 ± 1 MFI
same,"Thrombospondin-Receptor (CD36), Mean Fluorescence Intensity","[1]; E5555 20 ng/ml, Patients (ASA)",6 ± 2 MFI
same,"Thrombospondin-Receptor (CD36), Mean Fluorescence Intensity","[1]; E5555 20 ng/ml, Volunteers",9 ± 1 MFI
same,"Thrombospondin-Receptor (CD36), Mean Fluorescence Intensity",[1]; [3],5 ± 1 MFI
same,"Thrombospondin-Receptor (CD36), Mean Fluorescence Intensity","[1]; E5555 50 ng/ml, Patients (ASA)",7 ± 1 MFI
same,"Thrombospondin-Receptor (CD36), Mean Fluorescence Intensity","[1]; E5555 50 ng/ml, Volunteers",9 ± 2 MFI
same,"Thrombospondin-Receptor (CD36), Mean Fluorescence Intensity",[1]; [4],6 ± 2 MFI
same,"Thrombospondin-Receptor (CD36), Mean Fluorescence Intensity",[1]; [5],7 ± 2 MFI
same,"Thrombospondin-Receptor (CD36), Mean Fluorescence Intensity","[1]; E5555 100 ng/ml, Volunteers",9 ± 1 MFI
